Measurements from ChEMBL document CHEMBL1208670, “Synthesis, characterization and antimicrobial studies of 2-(4-methoxy-phenyl)-5-methyl-4-(2-arylsulfanyl-ethyl)-2,4-dihydro-[1,2,4] triazolo-3-ones and their corresponding sulfones” (2010).
In brackets after ≈: the same amount, converted by molar mass.

Tests used:
Type in all cases: functional
Bacillus subtilis = test: Antibacterial activity against Bacillus subtilis by twofold serial dilution method
Staphylococcus aureus = test: Antibacterial activity against Staphylococcus aureus by twofold serial dilution method
[1] = tested on: Staphylococcus epidermidis; test: Antibacterial activity against Staphylococcus epidermidis by twofold serial dilution method
Escherichia coli = test: Antibacterial activity against Escherichia coli by twofold serial dilution method
Pseudomonas aeruginosa = test: Antibacterial activity against Pseudomonas aeruginosa by twofold serial dilution method
Rhizopus arrhizus = test: Antifungal activity against Rhizopus oryzae by twofold serial dilution method
Aspergillus niger = test: Antifungal activity against Aspergillus niger by twofold serial dilution method
Aspergillus flavus = test: Antifungal activity against Aspergillus flavus by twofold serial dilution method
Candida albicans = test: Antifungal activity against Candida albicans by twofold serial dilution method
Saccharomyces cerevisiae = test: Antifungal activity against Saccharomyces cerevisiae by twofold serial dilution method

SMILES | MIC (Bacillus subtilis) [µg/mL] | MIC (Staphylococcus aureus) [µg/mL] | MIC [1] [µg/mL] | MIC (Escherichia coli) [µg/mL] | MIC (Pseudomonas aeruginosa) [µg/mL] | MIC (Rhizopus arrhizus) [µg/mL] | MIC (Aspergillus niger) [µg/mL] | MIC (Aspergillus flavus) [µg/mL] | MIC (Candida albicans) [µg/mL] | MIC (Saccharomyces cerevisiae) [µg/mL]
COc1ccc(-n2nc(C)n(CCSc3ccc(F)cc3)c2=O)cc1 | 150 (≈ 417 µM) | 75 (≈ 209 µM) | 75 (≈ 209 µM) | 150 (≈ 417 µM) | 75 (≈ 209 µM) | 150 (≈ 417 µM) | 150 (≈ 417 µM) | 150 (≈ 417 µM) | 150 (≈ 417 µM) | 150 (≈ 417 µM)
COc1ccc(-n2nc(C)n(CCSc3cccc(C(F)(F)F)c3)c2=O)cc1 | 150 (≈ 366 µM) | 9.75 (≈ 23.8 µM) | 150 (≈ 366 µM) | 9.75 (≈ 23.8 µM) | 75 (≈ 183 µM) | 18.8 (≈ 45.8 µM) | 150 (≈ 366 µM) | 150 (≈ 366 µM) | 150 (≈ 366 µM) | 150 (≈ 366 µM)
COc1ccc(-n2nc(C)n(CCSc3nnc(-c4ccc(Cl)cc4)o3)c2=O)cc1 | 150 (≈ 338 µM) | 75 (≈ 169 µM) | 150 (≈ 338 µM) | 150 (≈ 338 µM) | 150 (≈ 338 µM) | 150 (≈ 338 µM) | 150 (≈ 338 µM) | 150 (≈ 338 µM) | 150 (≈ 338 µM) | 150 (≈ 338 µM)
COc1ccc(-n2nc(C)n(CCS(=O)(=O)c3ccccc3F)c2=O)cc1 | 150 (≈ 383 µM) | 37.5 (≈ 95.8 µM) | 75 (≈ 192 µM) | 150 (≈ 383 µM) | 37.5 (≈ 95.8 µM) | 18.8 (≈ 47.9 µM) | 37.5 (≈ 95.8 µM) | 75 (≈ 192 µM) | 150 (≈ 383 µM) | 150 (≈ 383 µM)
COc1ccc(-n2nc(C)n(CCS(=O)(=O)c3ccc(Br)cc3)c2=O)cc1 | 75 (≈ 166 µM) | 9.38 (≈ 20.7 µM) | 150 (≈ 332 µM) | 150 (≈ 332 µM) | 150 (≈ 332 µM) | 37.5 (≈ 82.9 µM) | 37.5 (≈ 82.9 µM) | 75 (≈ 166 µM) | 150 (≈ 332 µM) | 150 (≈ 332 µM)
COc1ccc(-n2nc(C)n(CCS(=O)(=O)c3ccccc3)c2=O)cc1 | 150 (≈ 402 µM) | 37.5 (≈ 100 µM) | 75 (≈ 201 µM) | 150 (≈ 402 µM) | 75 (≈ 201 µM) | 150 (≈ 402 µM) | 150 (≈ 402 µM) | 150 (≈ 402 µM) | 150 (≈ 402 µM) | 150 (≈ 402 µM)
COc1ccc(-n2nc(C)n(CCSc3cccc(F)c3)c2=O)cc1 | 150 (≈ 417 µM) | 37.5 (≈ 104 µM) | 75 (≈ 209 µM) | 150 (≈ 417 µM) | 37.5 (≈ 104 µM) | 37.5 (≈ 104 µM) | 150 (≈ 417 µM) | 150 (≈ 417 µM) | 150 (≈ 417 µM) | 150 (≈ 417 µM)
C[C@@H]1[C@H](O)[C@@H](C)/C=C/C=C/C=C/C=C/C=C/C=C/C=C/[C@H](O[C@@H]2O[C@H](C)[C@@H](O)[C@H](N)[C@@H]2O)C[C@@H]2O[C@](O)(C[C@@H](O)C[C@@H](O)[C@H](O)CC[C@@H](O)C[C@@H](O)CC(=O)O[C@H]1C)C[C@H](O)[C@H]2C(=O)O [AMPHOTERICIN B] |  |  |  |  |  | 1.56 (≈ 1.69 µM) | 1.56 (≈ 1.69 µM) | 6.25 (≈ 6.76 µM) | 6.25 (≈ 6.76 µM) | 6.25 (≈ 6.76 µM)
CN[C@@H]1[C@H](O[C@H]2[C@H](O[C@H]3[C@H](O)[C@@H](O)[C@H](N=C(N)N)[C@@H](O)[C@@H]3N=C(N)N)O[C@@H](C)[C@]2(O)C=O)O[C@@H](CO)[C@H](O)[C@H]1O [STREPTOMYCIN] | 6.25 (≈ 10.7 µM) | 1.56 (≈ 2.68 µM) | 1.56 (≈ 2.69 µM) | 3.12 (≈ 5.37 µM) | 3.12 (≈ 5.37 µM) |  |  |  |  | 

The remaining compounds from weak to strong by MIC (Bacillus subtilis), led by results:

MIC (Bacillus subtilis) [µg/mL] | MIC (Staphylococcus aureus) [µg/mL] | MIC [1] [µg/mL] | MIC (Escherichia coli) [µg/mL] | MIC (Pseudomonas aeruginosa) [µg/mL] | MIC (Rhizopus arrhizus) [µg/mL] | MIC (Aspergillus niger) [µg/mL] | MIC (Aspergillus flavus) [µg/mL] | MIC (Candida albicans) [µg/mL] | MIC (Saccharomyces cerevisiae) [µg/mL] | SMILES
75 (≈ 178 µM) | 150 (≈ 357 µM) | 150 (≈ 357 µM) | 150 (≈ 357 µM) | 75 (≈ 178 µM) | 75 (≈ 178 µM) | 75 (≈ 178 µM) | 75 (≈ 178 µM) | 150 (≈ 357 µM) | 150 (≈ 357 µM) | COc1ccc(-n2nc(C)n(CCSc3ccc(Br)cc3)c2=O)cc1
75 (≈ 210 µM) | 75 (≈ 210 µM) | 75 (≈ 210 µM) | 150 (≈ 421 µM) | 150 (≈ 421 µM) | 37.5 (≈ 105 µM) | 37.5 (≈ 105 µM) | 75 (≈ 210 µM) | 150 (≈ 421 µM) | 150 (≈ 421 µM) | COc1ccc(-n2nc(C)n(CCSc3ccc(N)cc3)c2=O)cc1
75 (≈ 220 µM) | 75 (≈ 220 µM) | 37.5 (≈ 110 µM) | 37.5 (≈ 110 µM) | 75 (≈ 220 µM) | 75 (≈ 220 µM) | 37.5 (≈ 110 µM) | 75 (≈ 220 µM) | 150 (≈ 439 µM) | 150 (≈ 439 µM) | COc1ccc(-n2nc(C)n(CCSc3ccccc3)c2=O)cc1
75 (≈ 192 µM) | 18.8 (≈ 47.9 µM) | 37.5 (≈ 95.8 µM) | 9.38 (≈ 24 µM) | 150 (≈ 383 µM) | 37.5 (≈ 95.8 µM) | 37.5 (≈ 95.8 µM) | 75 (≈ 192 µM) | 150 (≈ 383 µM) | 150 (≈ 383 µM) | COc1ccc(-n2nc(C)n(CCS(=O)(=O)c3cccc(F)c3)c2=O)cc1
75 (≈ 192 µM) | 75 (≈ 192 µM) | 37.5 (≈ 95.8 µM) | 37.5 (≈ 95.8 µM) | 75 (≈ 192 µM) | 75 (≈ 192 µM) | 37.5 (≈ 95.8 µM) | 75 (≈ 192 µM) | 150 (≈ 383 µM) | 150 (≈ 383 µM) | COc1ccc(-n2nc(C)n(CCS(=O)(=O)c3ccc(F)cc3)c2=O)cc1
37.5 (≈ 85 µM) | 18.8 (≈ 42.5 µM) | 75 (≈ 170 µM) | 37.5 (≈ 85 µM) | 18.8 (≈ 42.5 µM) | 75 (≈ 170 µM) | 37.5 (≈ 85 µM) | 75 (≈ 170 µM) | 150 (≈ 340 µM) | 150 (≈ 340 µM) | COc1ccc(-n2nc(C)n(CCS(=O)(=O)c3cccc(C(F)(F)F)c3)c2=O)cc1
37.5 (≈ 104 µM) | 9.75 (≈ 27.1 µM) | 150 (≈ 417 µM) | 75 (≈ 209 µM) | 37.5 (≈ 104 µM) | 9.75 (≈ 27.1 µM) | 150 (≈ 417 µM) | 150 (≈ 417 µM) | 37.5 (≈ 104 µM) | 150 (≈ 417 µM) | COc1ccc(-n2nc(C)n(CCSc3ccccc3F)c2=O)cc1
18.8 (≈ 50.5 µM) | 75 (≈ 202 µM) | 150 (≈ 404 µM) | 18.8 (≈ 50.5 µM) | 75 (≈ 202 µM) | 37.5 (≈ 101 µM) | 37.5 (≈ 101 µM) | 75 (≈ 202 µM) | 150 (≈ 404 µM) | 150 (≈ 404 µM) | COc1ccc(-n2nc(C)n(CCSc3cccc(OC)c3)c2=O)cc1
1.53 (≈ 4.56 µM) | 6.25 (≈ 18.7 µM) | 3.12 (≈ 9.35 µM) | 7.81 (≈ 23.4 µM) | 12.5 (≈ 37.4 µM) |  |  |  |  |  | CC1(C)S[C@@H]2[C@H](NC(=O)Cc3ccccc3)C(=O)N2[C@H]1C(=O)O [PENICILLIN G]
